US20230087609A1, “USE OF A SOLUBLE GUANYLATE CYCLASE (sGC) STIMULATOR OR OF A COMBINATION OF A sGC STIMULATOR AND AN sGC ACTIVATOR FOR CONDITIONS WHEREIN THE HEME GROUP OF sGC IS OXIDIZED OR WHEREIN sGC IS DEFICIENT IN HEME” (Universiteit Maastricht, priority 2020, published 2023)

Key:
[1] = tested on: C57B16/J mice, transient occlusion of the middle cerebral artery (tMCAO); assay: tMCAO ischemia model, infarct size; assay type: in vivo, mouse; settings: 0.1 mg/kg i.p. 1 h after reperfusion; 1 h tMCAO, 24 h reperfusion; versus non-treated animals (FIG. 10)
Description: C57B16/J mice were anesthetized with isoflurane (0.6% in oxygen). The animal was placed on a heating-pad, and rectal temperature was maintained at 37.0° C. Transient cerebral ischemia was induced using an intraluminal filament technique. Using a surgical microscope (Tecnoscopio OPMI pico, Carl Zeiss, Meditec Iberia SA, Spain), a midline neck incision was made and the right common and external carotid arteries were isolated and permanently ligated. A microvascular temporarily ligature was placed on the internal carotid artery to temporarily stop the blood flow. A silicon rubber-coated monofilament (6023910PK10, Doccol, USA) was inserted through a small incision into the common carotid artery and advanced into the internal carotid artery until a resistance is felt. […]
After sacrificing the mice, brains were quickly removed and cut in four 2-mm thick coronal sections using a mouse brain slice matrix (Harvard Apparatus, USA). […] Indirect infarct volumes were calculated by volumetry (ImageJ software, National Institutes of Health, USA) according to the following equation: Vindirect (mm^3)=Vinfarct×(1−(Vih−Vch)/Vch), where the term (Vih−Vch) represents the volume difference between the ischemic hemisphere and the control hemisphere and (Vih−Vch)/Vch expresses this difference as a percentage of the control hemisphere.

[2] = biological target: T1, apo-sGC (sGCβ1 H105F knock-in) (Mus musculus, UniProt O54865, H105F); assay: sGC activity in lung homogenates of apo-sGC mice; assay type: biochemical
T1 construct: from tissue; host or cells: lung homogenate of homozygous sGCβ1 H105F knock-in mice
T1 sequence (O54865 1-620 H105F): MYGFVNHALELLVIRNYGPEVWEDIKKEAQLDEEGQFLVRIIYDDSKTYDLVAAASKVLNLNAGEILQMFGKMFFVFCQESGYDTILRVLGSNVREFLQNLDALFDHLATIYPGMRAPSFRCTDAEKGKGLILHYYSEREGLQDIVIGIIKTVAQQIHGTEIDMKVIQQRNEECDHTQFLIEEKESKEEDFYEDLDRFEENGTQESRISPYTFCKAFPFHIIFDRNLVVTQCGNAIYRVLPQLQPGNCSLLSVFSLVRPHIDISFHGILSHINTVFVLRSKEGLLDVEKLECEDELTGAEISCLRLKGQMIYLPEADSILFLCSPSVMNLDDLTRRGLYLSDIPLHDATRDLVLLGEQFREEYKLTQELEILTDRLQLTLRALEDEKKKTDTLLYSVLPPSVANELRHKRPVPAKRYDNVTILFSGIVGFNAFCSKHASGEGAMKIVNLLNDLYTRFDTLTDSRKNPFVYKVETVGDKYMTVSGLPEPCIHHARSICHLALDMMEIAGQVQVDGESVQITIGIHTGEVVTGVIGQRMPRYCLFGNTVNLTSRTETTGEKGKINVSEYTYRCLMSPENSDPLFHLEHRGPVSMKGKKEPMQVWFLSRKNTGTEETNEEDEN
T1 sequence (Q9ERL9 1-691 partner): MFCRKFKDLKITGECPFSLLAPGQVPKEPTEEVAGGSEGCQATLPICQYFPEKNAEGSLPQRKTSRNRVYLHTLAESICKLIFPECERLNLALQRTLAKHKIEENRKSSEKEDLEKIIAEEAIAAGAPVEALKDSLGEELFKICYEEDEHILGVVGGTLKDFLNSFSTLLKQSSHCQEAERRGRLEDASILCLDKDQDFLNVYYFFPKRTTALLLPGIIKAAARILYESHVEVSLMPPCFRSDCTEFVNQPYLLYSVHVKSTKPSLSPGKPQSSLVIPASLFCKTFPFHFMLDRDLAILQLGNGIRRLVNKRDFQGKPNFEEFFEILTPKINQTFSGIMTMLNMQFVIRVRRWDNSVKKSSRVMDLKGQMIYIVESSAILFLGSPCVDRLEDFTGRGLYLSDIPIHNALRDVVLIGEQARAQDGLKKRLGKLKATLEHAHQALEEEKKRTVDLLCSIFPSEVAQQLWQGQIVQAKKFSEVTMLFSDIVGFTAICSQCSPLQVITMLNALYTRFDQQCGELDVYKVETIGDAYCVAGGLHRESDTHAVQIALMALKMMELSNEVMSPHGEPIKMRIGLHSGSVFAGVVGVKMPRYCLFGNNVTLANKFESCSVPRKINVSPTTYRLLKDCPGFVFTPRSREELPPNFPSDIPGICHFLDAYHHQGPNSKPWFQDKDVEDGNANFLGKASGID
Description: Adult male Sprague Dawley (SD) rats (age, 10-12 weeks) were obtained from Animal Resources Centre (Western Australia). Animals were housed on a 12 hour day/night cycle at a room temperature of 20±2° C., in the Department of Pharmacology Animal House, Monash University. The animals were fed standard rodent chow and water was available ad libitum. Homozygous male sGC(1^H105F knock-in mice (“apo-sGC mice”) were kindly provided by Tufts Medical Center, Molecular Cardiology Research Center, Boston, Mass., USA (Toonen et al., Nat Commun. 2015; 6:8482. doi: 10.1038/ncomms9482).
To measure sGC activity, cells were stimulated with 250 μM DEA/NO or 10 μM BAY58-2667 for 3 min at 37° C. Thereafter, cells were immediately lysed in 80% ethanol. Cells were scraped and, after evaporation of ethanol, re-suspended in assay buffer and sonicated. Measurement of sGC activity in crude homogenates of mouse tissue was performed as previously described (Nedvetsky et al., Brain Res. 2002; 950(1-2):148-154. doi: 10.1016/50006-8993(02)03015-9).[9] Briefly, all samples were measured as the formation of cGMP at 37° C. during 10 min in a total incubation volume of […] containing 50 mM triethanolamine-HCl (pH 7.4), 3 mM MgCl2, 3 mM glutathione (Carl Roth, Karlsruhe, Germany), 1 mM IBMX, […], 5 mM creatine phosphate, 0.25 mg/ml creatine kinase and 1 mM or 0.5 mM GTP. After adding sGC activator in the absence or presence of the sGC stimulator the reaction was started by application of GTP solution. Following incubation of each sample for 10 min the reaction was stopped by boiling for 10 min at 95° C. Thereafter the amount of cGMP was subsequently determined by a commercial enzyme immunoassay kit (Enzo Life Sciences, Lorrach, Germany or Biotrend, Cologne, Germany). In some experiments pre-incubation of freshly homogenized tissue with ODQ at 37° C. for 20 min prior measuring sGC activation was required.

[3] = tested on: isolated rat mesenteric arteries; assay: Relaxation of isolated rat mesenteric arteries (myograph)
Description: The animals were killed humanely via CO2 inhalation (95% CO2, 5% O2) followed by cervical dislocation and exsanguination. The required tissues were dissected and placed in ice-cold oxygenated Krebs' solution (composition in mM: NaCl 119, KCl 4.7, MgSO4 1.17, NaHCO3 25, KH2PO4 1.18, CaCl2 2.5, glucose 5.5, EDTA 0.026, pH 7.4). The collected arteries were carefully freed of fat and connective tissue and cut into 2 mm rings.
The segments were then mounted in a small vessel myograph for the measurement of changes in isometric tension. Two 40 μm stainless steel wires were inserted through the lumen of the segment, one attached to an isometric force transducer and the other to a support driven by a micrometer. The vessels were maintained in Krebs' solution at 37° C. in 7 ml myograph chambers and were continuously bubbled with carbogen (95% O2, 5% CO2). Arteries were allowed to equilibrate for a 30 min period under zero force after which their internal diameter was normalised to an equivalent transmural pressure of 100 mmHg. Changes in isometric tension were reordered using a Myograph Interface Model 610 M version 2.2 (AD Instruments, Pty Ltd) and a chart recorder (Yokogawa, Japan), or using a MacLab® (MacLab® data-acquisition system, AD Instruments Pty Ltd.), interfaced with a Macintosh Computer. Following the 30 min equilibration period at optimal resting tension, the vessels were contracted maximally using a potassium depolarising KPSS solution (composition in mM: KCl 123, MgSO4 1.17, KH2PO4 2.37, CaCl2 2.5, glucose, 5.5 and EDTA 0.026). After the maximum contraction reached a plateau, the vessels were washed thoroughly using Krebs' solution and the tension allowed to return to the baseline. The vessels were then pre-contracted to ≈50% maximum contraction using titrated concentration of the thromboxane A2 mimetic U46619 (0.1-100 nM) and a titrated concentration of the al agonist cirazoline (1-100 nM). Subsequently, cumulative (0.5 log unit) concentration response curve to BAY 58-2667 (1 pM-0.1 μM) were constructed in the presence and absence of 100nM BAY 41-2272 (100 nM). All treatments used in our study including the pre-incubation with 10 μM ODQ for 30 min were added before the 50% pre-contraction with cirazoline and U46619 and only one concentration response curve to any vasodilator was constructed in each segment of the blood vessel. At the completion of each concentration response curve, maximal relaxation was achieved by adding nifedipine 10 μM.
Results are expressed as mean±s.e.m, with n representing the number of samples used from separate subjects. Statistical significance was accepted at the P<0.05 level. Relaxation responses to BAY58-2667 were expressed as a percentage reversal of the level of pre-contraction to U46619, with the response to nifedipine 10 μM defined as 100% relaxation. The individual response curves obtained for each vasodilator were fitted using non-linear regressions (Graphpad Prism®, version 5). In-vitro experiments have been performed with n=3 and n=1. Maximal relaxation values (%) at specific concentrations of the compounds were compared. For multiple comparisons, student's t-test or one-way analysis of variance (ANOVA) was followed by Bonferroni's test. • The results of our experiments are represented by the following non-limiting examples.

SMILES | infarct size / infarct volume [1] | effect of BAY 58-2667 on sGC activity in the presence of BAY 41-2272 ([2]; 0.3 μM BAY 58-2667 + 10 μM BAY 41-2272, fold stimulation versus basal activity (FIG. 1)) | sGC activity, response to compound alone ([2]; lung homogenates of apo-sGC mice, compound alone) | potentiation of BAY 58-2667 by BAY 41-2272 ([2]; lung homogenates of apo-sGC mice, maximal efficiency in the nano-molar range) | maximal relaxation, BAY 58-2667 combined with BAY 41-2272 ([3]; 0.0003 μM BAY 58-2667 + 0.1 μM BAY 41-2272 (FIG. 2)) | maximal relaxation, BAY 58-2667 combined with BAY 41-2272 ([3]; 0.001 μM BAY 58-2667 + 0.1 μM BAY 41-2272 (FIG. 3)) | maximal relaxation, BAY 58-2667 combined with BAY 41-2272 ([3]; 0.003 μM BAY 58-2667 + 0.1 μM BAY 41-2272 (FIG. 4))
COC(=O)N(C)c1c(N)nc(-c2nn(Cc3ccccc3F)c3ncccc23)nc1N [BAY 63-2521, riociguat] | reduces infarct size | – | – | – | – | – | –
O=C(O)CCCCN(CCc1ccccc1OCc1ccc(CCc2ccccc2)cc1)Cc1ccc(C(=O)O)cc1 [BAY 58-2667] | – | potentiated | fully responsive | potentiation | Super-additive effects | Super-additive effects | Super-additive effects
